What was measured:
[1] = Cytotoxicity against human OVCAR8 cells after 48 hrs by SRB assay; assay type: functional; conditions: OVCAR-8, 48 h; for CC50: read-out: LC50 (the source's name)
SF-295 [2] = experiment: Cytotoxicity against human SF295 cells assessed as cell growth at 10^-4 M after 48 hrs by SRB assay relative to control; assay type: functional; conditions: SF-295, 48 h, read-out: Activity
K562 = experiment: Cytotoxicity against human K562 cells assessed as cell growth at 10^-8 M after 48 hrs by SRB assay relative to control; assay type: functional; conditions: K562, 48 h, read-out: Activity
MOLT-4 [3] = experiment: Cytotoxicity against human MOLT4 cells assessed as cell growth at 10^-8 M after 48 hrs by SRB assay relative to control; assay type: functional; conditions: MOLT-4, 48 h, read-out: Activity
HT-29 = experiment: Cytotoxicity against human HT-29 cells assessed as cell growth at 10^-8 M after 48 hrs by SRB assay relative to control; assay type: functional; conditions: HT-29, 48 h, read-out: Activity
SNB-19 = experiment: Cytotoxicity against human SNB19 cells assessed as cell growth at 10^-8 M after 48 hrs by SRB assay relative to control; assay type: functional; conditions: SNB-19, 48 h, read-out: Activity
MDA-MB-468 = experiment: Cytotoxicity against human MDA-MB-468 cells assessed as cell growth at 10 uM after 48 hrs by SRB assay relative to control; assay type: functional; conditions: MDA-MB-468, 48 h, read-out: Activity
BT-549 = experiment: Cytotoxicity against human BT549 cells assessed as cell growth at 10 uM after 48 hrs by SRB assay relative to control; assay type: functional; conditions: BT-549, 48 h, read-out: Activity
MDA-MB-231 [4] = experiment: Cytotoxicity against human MDA-MB-231 cells assessed as cell growth at 10 uM after 48 hrs by SRB assay relative to control; assay type: functional; conditions: MDA-MB-231, 48 h, read-out: Activity
MCF7 = experiment: Cytotoxicity against human MCF7 cells assessed as cell growth at 10 uM after 48 hrs by SRB assay relative to control; assay type: functional; conditions: MCF7, 48 h, read-out: Activity
[5] = Cytotoxicity against human UO31 cells assessed as cell growth at 10 uM after 48 hrs by SRB assay relative to control; assay type: functional; conditions: UO-31, 48 h, read-out: Activity
CAKI-1 = experiment: Cytotoxicity against human Caki1 cells assessed as cell growth at 10 uM after 48 hrs by SRB assay relative to control; assay type: functional; conditions: CAKI-1, 48 h, read-out: Activity
SR = experiment: Cytotoxicity against human SR cells assessed as cell growth at 10 uM after 48 hrs by SRB assay relative to control; assay type: functional; conditions: read-out: Activity
DU-145 [6] = experiment: Cytotoxicity against human DU145 cells assessed as cell growth at 10 uM after 48 hrs by SRB assay relative to control; assay type: functional; conditions: DU-145, 48 h, read-out: Activity
SF-268 = experiment: Cytotoxicity against human SF268 cells assessed as cell growth at 10 uM after 48 hrs by SRB assay relative to control; assay type: functional; conditions: SF-268, 48 h, read-out: Activity
[7] = Cytotoxicity against human OVCAR4 cells assessed as cell growth at 10 uM after 48 hrs by SRB assay relative to control; assay type: functional; conditions: OVCAR-4, 48 h, read-out: Activity
[8] = Cytotoxicity against human UACC62 cells assessed as cell growth at 10 uM after 48 hrs by SRB assay relative to control; assay type: functional; conditions: UACC-62, 48 h, read-out: Activity
SK-MEL-28 = experiment: Cytotoxicity against human SK-MEL-28 cells assessed as cell growth at 10 uM after 48 hrs by SRB assay relative to control; assay type: functional; conditions: SK-MEL-28, 48 h, read-out: Activity
MDA-MB-435 = experiment: Cytotoxicity against human MDA-MB-435 cells assessed as cell growth at 10 uM after 48 hrs by SRB assay relative to control; assay type: functional; conditions: MDA-MB-435, 48 h, read-out: Activity
M14 = experiment: Cytotoxicity against human M14 cells assessed as cell growth at 10 uM after 48 hrs by SRB assay relative to control; assay type: functional; conditions: M14, 48 h, read-out: Activity
Malme-3M = experiment: Cytotoxicity against human MALME-3M cells assessed as cell growth at 10 uM after 48 hrs by SRB assay relative to control; assay type: functional; conditions: read-out: Activity
LOX IMVI = experiment: Cytotoxicity against human LOXIMVI cells assessed as cell growth at 10 uM after 48 hrs by SRB assay relative to control; assay type: functional; conditions: read-out: Activity
SF-295 [9] = experiment: Cytotoxicity against human SF295 cells assessed as cell growth at 10 uM after 48 hrs by SRB assay relative to control; assay type: functional; conditions: SF-295, 48 h, read-out: Activity
SW-620 = experiment: Cytotoxicity against human SW620 cells assessed as cell growth at 10 uM after 48 hrs by SRB assay relative to control; assay type: functional; conditions: SW-620, 48 h, read-out: Activity
NCI-H322M = experiment: Cytotoxicity against human NCI-H322M cells assessed as cell growth at 10 uM after 48 hrs by SRB assay relative to control; assay type: functional; conditions: read-out: Activity
NCI-H460 = experiment: Cytotoxicity against human NCI-H460 cells assessed as cell growth at 10 uM after 48 hrs by SRB assay relative to control; assay type: functional; conditions: NCI-H460, 48 h, read-out: Activity
NCI-H23 = experiment: Cytotoxicity against human NCI-H23 cells assessed as cell growth at 10 uM after 48 hrs by SRB assay relative to control; assay type: functional; conditions: NCI-H23, 48 h, read-out: Activity
HOP-92 = experiment: Cytotoxicity against human HOP92 cells assessed as cell growth at 10 uM after 48 hrs by SRB assay relative to control; assay type: functional; conditions: HOP-92, 48 h, read-out: Activity
NCI-H226 = experiment: Cytotoxicity against human NCI-H226 cells assessed as cell growth at 10 uM after 48 hrs by SRB assay relative to control; assay type: functional; conditions: NCI-H226, 48 h, read-out: Activity
[10] = Cytotoxicity against human EKVX cells assessed as cell growth at 10 uM after 48 hrs by SRB assay relative to control; assay type: functional; conditions: read-out: Activity
MOLT-4 [11] = experiment: Cytotoxicity against human MOLT4 cells assessed as cell growth at 10 uM after 48 hrs by SRB assay relative to control; assay type: functional; conditions: MOLT-4, 48 h, read-out: Activity
MDA-MB-231 [12] = experiment: Growth inhibition of human MDA-MB-231 cells after 72 hrs by MTT assay; assay type: functional, cell-based; conditions: MDA-MB-231, 72 h
[13] = Cytotoxicity against human UO31 cells assessed as cell growth at 10^-7 M after 48 hrs by SRB assay relative to control; assay type: functional; conditions: UO-31, 48 h, read-out: Activity
DU-145 [14] = experiment: Cytotoxicity against human DU145 cells assessed as cell growth at 10^-7 M after 48 hrs by SRB assay relative to control; assay type: functional; conditions: DU-145, 48 h, read-out: Activity
HCC 2998 = experiment: Cytotoxicity against human HCC2998 cells assessed as cell growth at 10^-6 M after 48 hrs by SRB assay relative to control; assay type: functional; conditions: HCC 2998, 48 h, read-out: Activity
MDA-MB-231 [15] = experiment: Antimigratory activity against human MDA-MB-231 cells after 24 hrs by wound-healing assay; assay type: functional, cell-based; conditions: MDA-MB-231, 24 h
NCI-H522 = experiment: Cytotoxicity against human NCI-H522 cells assessed as cell growth at 10 uM after 48 hrs by SRB assay relative to control; assay type: functional; conditions: NCI-H522, 48 h, read-out: Activity

SMILES: CC(C)=CCC[C@H](C)c1ccc(C)c2c1OCN(CC1CCNCC1)C2
- GI50 [1]: 18.4 µM
- TGI [1]: 34.5 µM
- CC50 [1]: 64.6 µM
- growth at 100 µM (SF-295 [2]): -67%
- growth at 0.01 µM (K562): 97%
- growth at 0.01 µM (MOLT-4 [3]): 106%
- growth at 0.01 µM (HT-29): 102%
- growth at 0.01 µM (SNB-19): 95%
- growth at 10 µM (MDA-MB-468): 7.48%
- growth at 10 µM (BT-549): 55.8%
- growth at 10 µM (MDA-MB-231 [4]): 64%
- growth at 10 µM (MCF7): 36%
- growth at 10 µM [5]: 60.5%
- growth at 10 µM (CAKI-1): 80.2%
- growth at 10 µM (SR): -8.52%
- growth at 10 µM (DU-145 [6]): 93.9%
- growth at 10 µM (SF-268): 93%
- growth at 10 µM [7]: 86%
- growth at 10 µM [8]: 63.5%
- growth at 10 µM (SK-MEL-28): 86%
- growth at 10 µM (MDA-MB-435): 14.7%
- growth at 10 µM (M14): -95.4%
- growth at 10 µM (Malme-3M): 90%
- growth at 10 µM (LOX IMVI): -70.5%
- growth at 10 µM (SF-295 [9]): 80%
- growth at 10 µM (SW-620): 28%
- growth at 10 µM (NCI-H322M): 98%
- growth at 10 µM (NCI-H460): 24.6%
- growth at 10 µM (NCI-H23): 79%
- growth at 10 µM (HOP-92): 12.3%
- growth at 10 µM (NCI-H226): 94%
- growth at 10 µM [10]: 81%
- growth at 10 µM (MOLT-4 [11]): 34.1%
- IC50 (MDA-MB-231 [12]): 14.9 µM
- growth at 0.1 µM [13]: 94%
- growth at 0.1 µM (DU-145 [14]): 94%
- growth at 1 µM (HCC 2998): 104%
- IC50 (MDA-MB-231 [15]): 8.1 µM

SMILES: COc1ccc(CCN2COc3c([C@@H](C)CCC=C(C)C)ccc(C)c3C2)cc1OC
- GI50 [1]: 4.21 µM
- TGI [1]: 20.2 µM
- CC50 [1]: 89.5 µM
- growth at 100 µM (SF-295 [2]): -87%
- growth at 0.01 µM (K562): 102%
- growth at 0.01 µM (MOLT-4 [3]): 90%
- growth at 0.01 µM (HT-29): 97%
- growth at 0.01 µM (SNB-19): 99%
- growth at 10 µM (MDA-MB-468): -70%
- growth at 10 µM (BT-549): 87.9%
- growth at 10 µM (MDA-MB-231 [4]): -3%
- growth at 10 µM (MCF7): 4%
- growth at 10 µM [5]: 10%
- growth at 10 µM (CAKI-1): 8%
- growth at 10 µM [7]: 11%
- growth at 10 µM [8]: 19%
- growth at 10 µM (SK-MEL-28): -44%
- growth at 10 µM (MDA-MB-435): 3%
- growth at 10 µM (M14): -91%
- growth at 10 µM (Malme-3M): -78%
- growth at 10 µM (LOX IMVI): -65%
- growth at 10 µM (SF-295 [9]): -18%
- growth at 10 µM (SW-620): -59%
- growth at 10 µM (NCI-H522): 64.7%
- growth at 10 µM (NCI-H322M): 5%
- growth at 10 µM (NCI-H460): -58%
- growth at 10 µM (NCI-H23): -29%
- growth at 10 µM (HOP-92): -1.29%
- growth at 10 µM (NCI-H226): 47%
- growth at 10 µM [10]: 33%
- growth at 10 µM (MOLT-4 [11]): 23%
- IC50 (MDA-MB-231 [12]): 16.3 µM
- growth at 0.1 µM [13]: 92%
- growth at 0.1 µM (DU-145 [14]): 94%
- growth at 1 µM (HCC 2998): 88%
- IC50 (MDA-MB-231 [15]): 9.5 µM

Reference: ChEMBL document CHEMBL3390836, “Mannich- and LedererManasse-based analogues of the natural product S-(+)-curcuphenol as cancer proliferation and migration inhibitors” (Medchemcomm, 2012)
